According to patent US20250223607A1, “HPPD Variants and Methods of Use” (BASF Agricultural Solutions Seed US LLC, priority 2013, published 2025):

Tests used:
[1] = target: T1, Arabidopsis HPPD single point mutant SEQ ID No. 35 (Arabidopsis thaliana, UniProt P93836, E252S); assay: biochemical; settings: for pI50: E252S mutant, 2 mM HPP, 3 minutes incubation
T1 construct: made in house; host or cells: E. coli BL21 (DE3)
Description: (§1) In this content, pI50-value means the log value of the concentration of inhibitor necessary to inhibit 50% of the enzyme activity in molar concentration.

[2] = target: T2, Arabidopsis HPPD single point mutant SEQ ID No. 44 (Arabidopsis thaliana, UniProt P93836, L368M); assay: biochemical; settings: for pI50: L368M mutant (SEQ ID No. 44), 2 mM HPP, 3 minutes incubation
T2 construct: made in house; host or cells: E. coli BL21 (DE3)
Description: as §1

[3] = target: T3, Arabidopsis HPPD single point mutant SEQ ID No. 48 (Arabidopsis thaliana, UniProt P93836, K421Q); assay: biochemical; settings: for pI50: K421Q mutant (SEQ ID No. 48), 2 mM HPP, 3 minutes incubation
T3 construct: made in house; host or cells: E. coli BL21 (DE3)
Description: as §1

[4] = target: T4, Arabidopsis HPPD single point mutant SEQ ID No. 46 (Arabidopsis thaliana, UniProt P93836, K421I); assay: biochemical; settings: for pI50: K421I mutant (SEQ ID No. 46), 2 mM HPP, 3 minutes incubation
T4 construct: made in house; host or cells: E. coli BL21 (DE3)
Description: as §1

[5] = target: T5, Arabidopsis HPPD single point mutant SEQ ID No. 42 (Arabidopsis thaliana, UniProt P93836, P280A); assay: biochemical; settings: for pI50: P280A mutant (SEQ ID No. 42), 2 mM HPP, 3 minutes incubation
T5 construct: made in house; host or cells: E. coli BL21 (DE3)
Description: as §1

[6] = target: T6, Arabidopsis HPPD single point mutant SEQ ID No. 50 (Arabidopsis thaliana, UniProt P93836, K421V); assay: biochemical; settings: for pI50: K421V mutant (SEQ ID No. 50), 2 mM HPP, 3 minutes incubation
T6 construct: made in house; host or cells: E. coli BL21 (DE3)
Description: as §1

[7] = target: T7, Arabidopsis HPPD single point mutant SEQ ID No. 40 (Arabidopsis thaliana, UniProt P93836, V269A); assay: biochemical; settings: for pI50: V269A mutant (SEQ ID No. 40), 2 mM HPP, 3 minutes incubation
T7 construct: made in house; host or cells: E. coli BL21 (DE3)
Description: as §1

[8] = target: T8, HPPD enzyme “SEQ ID No. 32” (Arabidopsis thaliana, UniProt P93836); assay: HPLC assay of HPPD in vitro kinetic properties (Km, Vmax, kcat; Ki, Kon, Koff); format: biochemical; settings: for kinetic parameter / sensitivity of Arabidopsis thaliana HPPD in presence of inhibitor: 2 mM HPP
T8 construct: made in house; host or cells: E. coli BL21 (DE3)
T8 sequence (P93836 with tags, fused parts or gaps): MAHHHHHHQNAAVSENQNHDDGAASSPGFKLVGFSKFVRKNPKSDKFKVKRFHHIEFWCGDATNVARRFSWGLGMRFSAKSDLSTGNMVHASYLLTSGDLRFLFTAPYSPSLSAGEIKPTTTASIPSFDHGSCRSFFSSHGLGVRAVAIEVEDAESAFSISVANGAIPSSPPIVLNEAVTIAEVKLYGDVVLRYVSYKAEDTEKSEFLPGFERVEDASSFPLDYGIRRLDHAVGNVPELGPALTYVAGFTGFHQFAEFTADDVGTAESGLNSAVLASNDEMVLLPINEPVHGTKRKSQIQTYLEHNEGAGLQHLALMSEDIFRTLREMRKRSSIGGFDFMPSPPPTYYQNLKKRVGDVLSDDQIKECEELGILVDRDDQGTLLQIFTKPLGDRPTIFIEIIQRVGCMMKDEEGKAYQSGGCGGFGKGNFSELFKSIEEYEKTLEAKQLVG
Experimental: Km, Vmax, and kcat values for different HPPD enzyme preparations and Ki, K1=Kon, and K−1=Koff for different HPPD inhibitors were determined using a HPLC assay for measurements of HPPD activity. […] All assays were started by the addition of HPPD enzyme to the assay mixture and stopped at a series of times between 0 and 240 s by addition of 200 μl of the reaction mixture to reaction assay tubes containing 20 μl 10% perchloric acid. Precipitated protein was pelleted by a 5 minute centrifugation at 10,000 g.
For Km and Vmax value determinations the initial rates of the HPPD reaction at different substrate concentrations were determined from plots of HGA formed versus time and fitted to the Michaelis-Menten equation for unireactant enzymes using the ID Business Solutions Ltd. (www.idbs.com) XLfit software suite.

[9] = target: T9, Arabidopsis thaliana wild type HPPD “SEQ ID No. 32” (Arabidopsis thaliana, UniProt P93836); assay: pI50 determination from dose-response plots of HPPD activity (standard spectrophotometric assay of WO 2009/144079); format: biochemical
T9 construct: made in house; host or cells: E. coli BL21 (DE3)
T9 sequence (P93836 with tags, fused parts or gaps): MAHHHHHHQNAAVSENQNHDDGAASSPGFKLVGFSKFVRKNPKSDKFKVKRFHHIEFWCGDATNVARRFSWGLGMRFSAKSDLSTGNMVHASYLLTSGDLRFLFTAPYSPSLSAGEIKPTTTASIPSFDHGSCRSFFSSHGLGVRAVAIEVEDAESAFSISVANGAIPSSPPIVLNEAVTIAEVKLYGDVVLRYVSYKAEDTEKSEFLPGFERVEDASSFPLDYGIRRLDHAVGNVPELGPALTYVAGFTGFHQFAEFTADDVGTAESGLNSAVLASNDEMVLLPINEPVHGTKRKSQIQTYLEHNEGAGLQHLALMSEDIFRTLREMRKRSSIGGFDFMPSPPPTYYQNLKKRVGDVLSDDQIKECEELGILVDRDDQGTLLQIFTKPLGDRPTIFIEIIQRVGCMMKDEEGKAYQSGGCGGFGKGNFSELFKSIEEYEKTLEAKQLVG
Description: as §1

HPPD activity = assay: Colorimetric screening test for active HPPD enzymes (production of brown color); format: cell-based, Escherichia coli; settings: E. coli with pSE420-HPPDx, 5 mM L-Tyrosine, 16 hours at 37° C.
Experimental: (§2) A YT-broth-type culture medium with 1% agarose, 5 mM L-Tyrosine and 42 mM Succinate, which contains the selection agent for the vector pSE420 (Invitrogen, Karlsruhe, Germany) is poured into deep well plates. E. coli culture in the exponentional growth phase which contains the vector pSE420-HPPDx (HPPDx means any gene coding for a putative HPPD enzyme/protein) is applied to each well.
as §2, with “pSE420” for “pSE420 (Invitrogen, Karlsruhe, Germany)”, “(any” for “(HPPDx means any”
It can be concluded that the two HPPD mutants are not able to convert HPP into homogentisate. […] One can conclude that the amino acid positions 267 and 282 (referring to position in SEQ ID No. 2) are essential for HPPD activity.

[10] = substrate HPP varied 10-400 μM, HPPD SEQ ID No. 32, HPLC assay
[11] = SEQ ID No. 32 (wild type), 2 mM HPP, 3 minutes incubation

T1 sequence (P93836 whole entry E252S): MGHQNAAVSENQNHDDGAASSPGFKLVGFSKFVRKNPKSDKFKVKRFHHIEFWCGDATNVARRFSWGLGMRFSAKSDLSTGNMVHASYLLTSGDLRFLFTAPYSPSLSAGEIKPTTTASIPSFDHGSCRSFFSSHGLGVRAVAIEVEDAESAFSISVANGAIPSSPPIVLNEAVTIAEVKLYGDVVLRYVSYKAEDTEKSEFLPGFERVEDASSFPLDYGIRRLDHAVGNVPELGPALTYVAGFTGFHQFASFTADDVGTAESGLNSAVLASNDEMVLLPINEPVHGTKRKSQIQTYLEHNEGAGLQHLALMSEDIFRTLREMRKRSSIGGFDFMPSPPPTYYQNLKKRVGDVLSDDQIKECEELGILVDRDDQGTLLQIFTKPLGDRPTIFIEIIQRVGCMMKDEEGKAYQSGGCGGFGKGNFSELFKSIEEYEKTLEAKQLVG
T3 sequence (P93836 other isoform, or with tags, fused parts or gaps K421Q): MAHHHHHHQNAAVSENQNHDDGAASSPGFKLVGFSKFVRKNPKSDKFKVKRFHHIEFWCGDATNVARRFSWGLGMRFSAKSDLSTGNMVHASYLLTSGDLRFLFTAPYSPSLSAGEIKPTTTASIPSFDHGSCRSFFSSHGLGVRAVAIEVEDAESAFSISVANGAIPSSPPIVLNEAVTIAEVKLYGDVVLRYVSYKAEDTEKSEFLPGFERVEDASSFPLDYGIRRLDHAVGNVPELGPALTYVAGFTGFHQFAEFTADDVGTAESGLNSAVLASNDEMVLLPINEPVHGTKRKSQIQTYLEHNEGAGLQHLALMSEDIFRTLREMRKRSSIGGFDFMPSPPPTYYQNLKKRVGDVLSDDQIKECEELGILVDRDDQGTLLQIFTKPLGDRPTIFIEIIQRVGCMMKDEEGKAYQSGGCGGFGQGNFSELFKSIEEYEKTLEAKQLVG
T2 sequence (P93836 other isoform, or with tags, fused parts or gaps L368M): as the sequence (P93836 other isoform, or with tags, fused parts or gaps K421Q) above, with L373M, Q426K counted along it
T6 sequence (P93836 other isoform, or with tags, fused parts or gaps K421V): as the sequence (P93836 other isoform, or with tags, fused parts or gaps K421Q) above, with Q426V counted along it
T4 sequence (P93836 other isoform, or with tags, fused parts or gaps K421I): as the sequence (P93836 other isoform, or with tags, fused parts or gaps K421Q) above, with Q426I counted along it
T5 sequence (P93836 other isoform, or with tags, fused parts or gaps P280A): as the sequence (P93836 other isoform, or with tags, fused parts or gaps K421Q) above, with P285A, Q426K counted along it
T7 sequence (P93836 other isoform, or with tags, fused parts or gaps V269A): as the sequence (P93836 other isoform, or with tags, fused parts or gaps K421Q) above, with V274A, Q426K counted along it

## COCCOCc1nc(C(F)(F)F)ccc1C(=O)C1=C(O)C2CCC(C2)C1=O (stereo not drawn) [Bicyclopyrone, 4-hydroxy-3-[[2-[(2-methoxyethoxy)methyl]-6-(trifluoromethyl)-3-pyridinyl]carbonyl]bicyclo[3.2.1]oct-3-en-2-one]
[1]
  IC50: 50.1 µM
[2]
  IC50: 31.6 µM
[3]
  IC50: 20 µM
[4]
  IC50: 63.1 µM
[5]
  IC50: 50.1 µM
[6]
  IC50: 63.1 µM
[7]
  IC50: 50.1 µM

## CS(=O)(=O)c1ccc(C(=O)C2C(=O)CCCC2=O)c(Cl)c1COCC(F)(F)F [Tembotrione, 2-[2-chloro-4-(methylsulfonyl)-3-[(2,2,2,-tri-fluoroethoxy)methyl]benzoyl]-1,3-cyclo-hexanedione]
[2]
  IC50: < 2.51 µM
[3]
  IC50: < 2.51 µM
[5]
  IC50: < 2.51 µM
[6]
  IC50: < 2.51 µM
[7]
  IC50: < 2.51 µM
[8]
  kinetic parameter / sensitivity of Arabidopsis thaliana HPPD in presence of inhibitor: comparable range

## O=C(O)C(=O)Cc1ccc(O)cc1 [HPP]
[8]; [10]
  Km: 6.3 µM
  Vmax: 1.2 µM

## CS(=O)(=O)c1ccc(C(=O)C2C(=O)CCCC2=O)c(Cl)c1 [Sulcotrione, 2-[2-chloro-4-(methylsulfonyl)benzoyl]-1,3-cyclohexanedione]
[1]
  IC50: 7.94 µM
[2]
  IC50: 6.31 µM
[3]
  IC50: < 2.51 µM
[4]
  IC50: 10 µM
[5]
  IC50: 10 µM
[6]
  IC50: 7.94 µM
[7]
  IC50: 10 µM

## CS(=O)(=O)c1ccc(C(=O)C2C(=O)CCCC2=O)c([N+](=O)[O-])c1 [Mesotrione, 2-[4-(methylsulfonyl)-2-nitrobenzoyl]-1,3-cyclohexanedione]
[3]
  IC50: < 2.51 µM

## CS(=O)(=O)c1cc(C(F)(F)F)ccc1C(=O)C(C#N)C(=O)C1CC1 (stereo not drawn) [Diketonitrile, 2-cyano-3-cyclopropyl-1-(2-methylsulphonyl-4-trifluoromethylphenyl)-propane-1,3-dione]
[8]
  kinetic parameter / sensitivity of Arabidopsis thaliana HPPD in presence of inhibitor: sensitive in the similar range as the carrot HPPD

## Cc1ccc(S(=O)(=O)Oc2c(C(=O)c3ccc(Cl)cc3Cl)c(C)nn2C)cc1 [Pyrazolat]
[1]
  pI50: 4.7
[2]
  pI50: 4.9
[3]
  pI50: 5.0
[4]
  pI50: 4.5
[5]
  pI50: 4.7
[6]
  pI50: 4.5
[7]
  pI50: 4.4
[9]; [11]
  pI50: 5.4

## Cc1nn(C)c(O)c1C(=O)c1ccc(C(F)(F)F)cc1S(C)(=O)=O [Pyrasulfotole]
[1]
  pI50: 4.3
[2]
  pI50: 5.0
[3]
  pI50: 4.8
[4]
  pI50: 4.3
[5]
  pI50: 4.4
[6]
  pI50: 4.4
[7]
  pI50: 4.4
[9]; 2 mM fixed HPP concentration, 3 minutes fixed incubation time, inhibitor 2.5 × 10^−6 to 2.5 × 10^−4 M
  pI50: 5.4
[9]; [11]
  pI50: 5.4

## Cc1ccc(C(=O)COc2c(C(=O)c3ccc(Cl)c(C)c3Cl)c(C)nn2C)cc1 [Benzofenap]
[1]
  IC50: 6.31 µM
[2]
  IC50: < 2.51 µM
[3]
  IC50: < 2.51 µM
[4]
  IC50: 7.94 µM
[5]
  IC50: 6.31 µM
[6]
  IC50: 6.31 µM
[7]
  IC50: 6.31 µM

B1: S267A: point mutant S267A of A. thaliana HPPD with N-terminal alanine and 6 histidines (protein)
chain: MAHHHHHHQNAAVSENQNHDDGAASSPGFKLVGFSKFVRKNPKSDKFKVKRFHHIEFWCGDATNVARRFSWGLGMRFSAKSDLSTGNMVHASYLLTSGDLRFLFTAPYSPSLSAGEIKPTTTASIPSFDHGSCRSFFSSHGLGVRAVAIEVEDAESAFSISVANGAIPSSPPIVLNEAVTIAEVKLYGDVVLRYVSYKAEDTEKSEFLPGFERVEDASSFPLDYGIRRLDHAVGNVPELGPALTYVAGFTGFHQFAEFTADDVGTAESGLNAAVLASNDEMVLLPINEPVHGTKRKSQIQTYLEHNEGAGLQHLALMSEDIFRTLREMRKRSSIGGFDFMPSPPPTYYQNLKKRVGDVLSDDQIKECEELGILVDRDDQGTLLQIFTKPLGDRPTIFIEIIQRVGCMMKDEEGKAYQSGGCGGFGKGNFSELFKSIEEYEKTLEAKQLVG
modifications: N-terminal alanine and His6 tag; encoded by SEQ ID No. 33; SITE 2 MISC_FEATURE - Ala; MISC_FEATURE - His Tag made of 6 His
notes: point mutant S267A of A. thaliana HPPD with N-terminal alanine and 6 histidines
HPPD activity
  HPPD activity (production of brown color): inactive

B2: N282A: point mutant N282A of A. thaliana HPPD with N-terminal alanine and 6 histidines (protein)
chain: MAHHHHHHQNAAVSENQNHDDGAASSPGFKLVGFSKFVRKNPKSDKFKVKRFHHIEFWCGDATNVARRFSWGLGMRFSAKSDLSTGNMVHASYLLTSGDLRFLFTAPYSPSLSAGEIKPTTTASIPSFDHGSCRSFFSSHGLGVRAVAIEVEDAESAFSISVANGAIPSSPPIVLNEAVTIAEVKLYGDVVLRYVSYKAEDTEKSEFLPGFERVEDASSFPLDYGIRRLDHAVGNVPELGPALTYVAGFTGFHQFAEFTADDVGTAESGLNSAVLASNDEMVLLPIAEPVHGTKRKSQIQTYLEHNEGAGLQHLALMSEDIFRTLREMRKRSSIGGFDFMPSPPPTYYQNLKKRVGDVLSDDQIKECEELGILVDRDDQGTLLQIFTKPLGDRPTIFIEIIQRVGCMMKDEEGKAYQSGGCGGFGKGNFSELFKSIEEYEKTLEAKQLVG
modifications: N-terminal alanine and His6 tag; encoded by SEQ ID No. 35; SITE 2 MISC_FEATURE - Ala; MISC_FEATURE - His Tag made of 6 His
notes: point mutant N282A of A. thaliana HPPD with N-terminal alanine and 6 histidines
HPPD activity
  HPPD activity (production of brown color): inactive

B3: wild type HPPD: Arabidopsis thaliana wild type HPPD polypeptide with N-terminal alanine and 6 histidine amino acids (protein)
chain: MAHHHHHHQNAAVSENQNHDDGAASSPGFKLVGFSKFVRKNPKSDKFKVKRFHHIEFWCGDATNVARRFSWGLGMRFSAKSDLSTGNMVHASYLLTSGDLRFLFTAPYSPSLSAGEIKPTTTASIPSFDHGSCRSFFSSHGLGVRAVAIEVEDAESAFSISVANGAIPSSPPIVLNEAVTIAEVKLYGDVVLRYVSYKAEDTEKSEFLPGFERVEDASSFPLDYGIRRLDHAVGNVPELGPALTYVAGFTGFHQFAEFTADDVGTAESGLNSAVLASNDEMVLLPINEPVHGTKRKSQIQTYLEHNEGAGLQHLALMSEDIFRTLREMRKRSSIGGFDFMPSPPPTYYQNLKKRVGDVLSDDQIKECEELGILVDRDDQGTLLQIFTKPLGDRPTIFIEIIQRVGCMMKDEEGKAYQSGGCGGFGKGNFSELFKSIEEYEKTLEAKQLVG
modifications: misc_feature 1..1353 Nucleic acid sequence encoding Arabidopsis HPPD plus containingat the 5' end a nucleic acid encoding an Ala and 6 His aminoacids; misc_feature 4..6 sequence coding for an Ala; misc_feature 7..24 sequence coding for an His Tag containing 6 His
HPPD activity
  HPPD activity (production of brown color): strong brown color
